Biological target: CBL-B protein (Homo sapiens, UniProt Q13191)
Assay: CBL-B binding experiment (Streptavidin-Tb cryptate / Ligand L1 displacement)
Details: 8 nM CBL-B protein, 25° C., 60 minutes; Ki=Relative IC50/2
Procedure: The reaction system mainly includes 1× buffer, 20 mM HEPES pH 7.5, 150 mM NaCl, 0.01% Triton X-100, 0.5 mM TCEP, and 0.1% ug/ml BSA. The compound is continuously diluted with DMSO for 10 concentration points, and 150 nL is transferred to the experimental plate. The experimental reaction begins after adding 8 nM of CBL-B protein and the reaction is carried out at 25° C. for 60 minutes. […] After an additional 60 minutes of incubation at room temperature, the experimental plate is read using an EnVision plate. The luminescence signal values were converted to percentage inhibition rates. Inhibition %=(Sample value−Maximum value)/(Minimum value−Maximum value)×100. The minimum value refers to the measured value in the wells without CBL-B protein but with DMSO and Ligand, while the maximum value refers to the measured value in the wells with DMSO, CBL-B protein, and Ligand. The IC50 values are calculated by XLFit (version 5.3.1.3) in Excel. Equation: Y=Bottom+(Top−Bottom)/(1+(IC50/X)^HillSlope); Ki=Relative IC50/2.

CBL-B protein, sequence (Q13191 whole entry): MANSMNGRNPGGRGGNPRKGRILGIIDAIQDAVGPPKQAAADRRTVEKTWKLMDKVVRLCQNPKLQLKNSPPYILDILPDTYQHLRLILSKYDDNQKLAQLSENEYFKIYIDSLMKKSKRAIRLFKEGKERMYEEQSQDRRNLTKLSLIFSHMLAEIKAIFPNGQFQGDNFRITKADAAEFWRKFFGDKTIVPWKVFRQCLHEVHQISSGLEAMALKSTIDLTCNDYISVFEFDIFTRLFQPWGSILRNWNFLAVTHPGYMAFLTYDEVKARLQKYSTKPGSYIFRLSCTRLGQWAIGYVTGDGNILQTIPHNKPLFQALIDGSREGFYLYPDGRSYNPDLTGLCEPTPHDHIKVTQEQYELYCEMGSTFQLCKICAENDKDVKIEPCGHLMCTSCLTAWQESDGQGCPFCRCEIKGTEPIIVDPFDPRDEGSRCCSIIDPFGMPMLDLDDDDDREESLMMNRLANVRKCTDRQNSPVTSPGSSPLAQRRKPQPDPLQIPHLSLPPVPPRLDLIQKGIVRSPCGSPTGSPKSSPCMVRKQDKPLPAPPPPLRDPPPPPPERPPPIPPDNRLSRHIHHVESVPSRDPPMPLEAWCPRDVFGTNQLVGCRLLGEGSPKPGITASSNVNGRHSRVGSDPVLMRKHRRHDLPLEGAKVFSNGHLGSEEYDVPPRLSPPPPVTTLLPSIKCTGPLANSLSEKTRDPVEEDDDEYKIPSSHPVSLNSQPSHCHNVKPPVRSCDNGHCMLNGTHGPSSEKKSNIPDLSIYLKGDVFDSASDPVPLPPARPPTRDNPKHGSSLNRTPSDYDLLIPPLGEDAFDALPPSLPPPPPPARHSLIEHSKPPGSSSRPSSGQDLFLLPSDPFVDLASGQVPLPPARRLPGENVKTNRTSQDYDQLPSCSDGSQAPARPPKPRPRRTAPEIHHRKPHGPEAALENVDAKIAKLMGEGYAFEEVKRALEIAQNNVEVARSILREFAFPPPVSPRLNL

Ki [nM]	Structure (SMILES)
< 50	CO[C@H]1C[C@](c2cccc(-n3cc(C(F)(F)F)c4cc(CN5CC6CCC(C6)C5)[nH]c4c3=O)c2)(c2nncn2C)C1 [Compound T146, 2-((3-azabicyclo[3.2.1]octan-3-yl)methyl)-6-(3-((1r,3r)-3-methoxy-1-(4-methyl-4H-1,2,4-triazol-3-yl)cyclobutyl)phenyl)-4-(trifluoromethyl)-1,6-dihydro-7H-pyrrolo[2,3-c]pyridin-7-one]
< 50	Cn1cnnc1C1(c2cccc(-n3cc(C(F)(F)F)c4cc(CN5CC[C@@H](O)C5)[nH]c4c3=O)c2)CCC1 [Compound T015, 2-[[(3R)-3-hydroxypyrrolidin-1-yl]methyl]-6-[3-[1-(4-methyl-1,2,4-triazol-3-yl)cyclobutyl]phenyl]-4-(trifluoromethyl)-1H-pyrrolo[2,3-c]pyridin-7-one]
< 50	CO[C@H]1C[C@](c2cccc(-n3cc(C(F)(F)F)c4cc(CN5CCCC6(CC6)C5)[nH]c4c3=O)c2)(c2nncn2C)C1 [Compound T148, 2-((5-azaspiro[2.5]octan-5-yl)methyl)-6-(3-((1r,3r)-3-methoxy-1-(4-methyl-4H-1,2,4-triazol-3-yl)cyclobutyl)phenyl)-4-(trifluoromethyl)-1,6-dihydro-7H-pyrrolo[2,3-c]pyridin-7-one]
< 50	C[C@@H]1CN(Cc2cc3c(C(F)(F)F)cn(-c4cccc([C@]5(c6nncn6C)C[C@@H](C)C5)c4)c(=O)c3[nH]2)CCN1 [Compound T142, 6-[3-[3-methyl-1-(4-methyl-1,2,4-triazol-3-yl)cyclobutyl]phenyl]-2-[[(3R)-3-methylpiperazin-1-yl]methyl]-4-(trifluoromethyl)-1H-pyrrolo[2,3-c]pyridin-7-one]
< 50	C[C@H]1CCCN(Cc2cc3c(C(F)(F)F)cn(-c4cccc(C5(Cc6nncn6C)COC5)c4)c(=O)c3[nH]2)C1 [Compound T061, 2-[[(3S)-3-methyl-1-piperidyl]methyl]-6-[3-[3-[(4-methyl-1,2,4-triazol-3-yl)methyl]oxetan-3-yl]phenyl]-4-(trifluoromethyl)-1H-pyrrolo[2,3-c]pyridin-7-one]
< 50	Cn1cnnc1C1(c2cccc(-n3cc(C(F)(F)F)c4cc(CN5CCC[C@H](CC#N)C5)[nH]c4c3=O)c2)CCC1 [Compound T081, (R)-2-(1-((6-(3-(1-(4-methyl-4H-1,2,4-triazol-3-yl)cyclobutyl)phenyl)-7-oxo-4-(trifluoromethyl)-6,7-dihydro-1H-pyrrolo[2,3-c]pyridin-2-yl)methyl)piperidin-3-yl)acetonitrile]
< 50	C[C@H]1CCCN(Cc2cc3c(C(F)(F)F)cn(-c4cccc(C5(c6nncn6C)COC5)c4)c(=O)c3[nH]2)C1 [Compound T129, (S)-6-(3-(3-(4-methyl-4H-1,2,4-triazol-3-yl)oxetan-3-yl)phenyl)-2-((3-methylpiperidin-1-yl)methyl)-4-(trifluoromethyl)-1,6-dihydro-7H-pyrrolo[2,3-c]pyridin-7-one]
50 to 100	C[C@H]1CCN(Cc2cc3c(C(F)(F)F)cn(-c4cccc(C5(c6nncn6C)CCC5)c4)c(=O)c3[nH]2)CC1(F)F [Compound T116, (S)-2-((3,3-difluoro-4-methylpiperidin-1-yl)methyl)-6-(3-(1-(4-methyl-4H-1,2,4-triazol-3-yl)cyclobutyl)phenyl)-4-(trifluoromethyl)-1,6-dihydro-7H-pyrrolo[2,3-c]pyridin-7-one]
< 50	C[C@H]1CCCN(Cc2cc3c(C(F)(F)F)cn(-c4ccc([C@]5(c6nncn6C)C[C@@H](C)C5)s4)c(=O)c3[nH]2)C1 [Compound T073, 6-(5-((1r,3S)-3-methyl-1-(4-methyl-4H-1,2,4-triazol-3-yl)cyclobutyl)thiophen-2-yl)-2-(((S)-3-methylpiperidin-1-yl)methyl)-4-(trifluoromethyl)-1,6-dihydro-7H-pyrrolo[2,3-c]pyridin-7-one]

— US20260217706A1, “HETEROCYCLIC COMPOUNDS, PREPARATION METHOD THEREFOR AND USE THEREOF” (GUANGZHOU YUFAN NANTU BIOTECHNOLOGIES CO., LTD, priority 2023, published 2026)
